Data published in patent publication US20230158025A1 (UNIVERSITY OF UTAH RESEARCH FOUNDATION, priority 2020, published 2023).
Like-named read-outs stand apart in the source and are kept apart here.

Assays:
[1] = biological target: recombinant mouse GALK1 (Mus musculus, UniProt Q9R0N0); assay: mGALK1 biochemical activity assay (Kinase-Glo Plus, ATP depletion)
Method in brief: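 Recombinant GALK1 (5 nM) with 100 μM galactose; GALK1 turnover read as ATP depletion by Kinase-Glo Plus luminescence. Reaction ran 1 h at room temperature before detection reagent was added.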

[2] = PAMPA permeability
[3] = biological target: recombinant human GALK1 (Homo sapiens, UniProt P51570); assay: hGALK1 biochemical activity assay (Kinase-Glo Plus, ATP depletion)
Sequence of recombinant human GALK1 (P51570 whole entry): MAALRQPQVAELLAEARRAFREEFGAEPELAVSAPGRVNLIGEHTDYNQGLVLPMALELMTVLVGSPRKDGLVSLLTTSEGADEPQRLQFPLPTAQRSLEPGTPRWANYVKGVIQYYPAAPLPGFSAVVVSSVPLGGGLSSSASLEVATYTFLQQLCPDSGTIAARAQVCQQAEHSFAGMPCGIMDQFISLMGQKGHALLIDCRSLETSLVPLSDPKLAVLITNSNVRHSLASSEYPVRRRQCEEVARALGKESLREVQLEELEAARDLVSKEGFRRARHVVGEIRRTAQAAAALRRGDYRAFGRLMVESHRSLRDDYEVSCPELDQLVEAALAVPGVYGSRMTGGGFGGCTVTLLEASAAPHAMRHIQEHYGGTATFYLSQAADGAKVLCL
Method in brief: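 Recombinant human or mouse GALK1 (5 nM, with 100 μM galactose, in the added enzyme solution) was run with ATP (35 μM in the substrate solution) in HEPES pH 8.0 buffer. Compounds were tested at 11 1/3-step concentrations from 57.4 μM to 0.97 nM. After 1 h at room temperature, remaining ATP was read by Kinase-Glo Plus luminescence.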

[4] = rat microsomal stability (RLM)
[5] = aqueous kinetic solubility
[6] = Tables 2-15, 35 μM ATP, 100 μM galactose, 1 h, bracketed figure after some values is undefined and not reported, read-out: mGALK IC50
[7] = recombinant mouse GALK1, Kinase-Glo Plus ATP depletion, read-out: mGALK
[8] = Tables 2-15, 35 μM ATP, 100 μM galactose, 1 h, bracketed figure after some values (e.g. −1.2) is undefined and not reported, read-out: hGALK IC50
[9] = recombinant human GALK1, Kinase-Glo Plus ATP depletion, read-out: hGALK

Sequence of recombinant mouse GALK1 (Q9R0N0 whole entry): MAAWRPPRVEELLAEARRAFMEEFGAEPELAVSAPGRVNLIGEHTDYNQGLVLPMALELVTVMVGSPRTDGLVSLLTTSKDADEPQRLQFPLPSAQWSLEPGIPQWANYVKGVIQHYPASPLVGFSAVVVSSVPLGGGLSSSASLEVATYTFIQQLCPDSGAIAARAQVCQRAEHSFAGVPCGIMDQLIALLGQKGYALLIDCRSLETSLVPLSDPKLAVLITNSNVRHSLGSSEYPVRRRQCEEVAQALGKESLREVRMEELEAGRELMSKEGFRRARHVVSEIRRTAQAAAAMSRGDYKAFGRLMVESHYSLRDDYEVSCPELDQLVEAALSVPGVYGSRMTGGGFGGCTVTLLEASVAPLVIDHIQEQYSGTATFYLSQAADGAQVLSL

Row | Compound | IC50 [1, 6] [µM] | IC50 [1, 7] [µM] | Perm. (1 × 10^−6 cm/sec) [2] | IC50 [3, 8] [µM] | IC50 [3, 9] [µM] | Metab. Stabil. (m) ([4]; microsomal half-life) | Sol. [5] [µg/mL] | Perm. (1 × 10^−6 cm/sec) ([2]; PAMPA) | Metab. Stabil. (m) ([4]; microsomal stability half-life) | Sol. ([5]; aqueous kinetic solubility) [µg/mL] | IC50 ([1]; recombinant mouse GALK1, Kinase-Glo Plus ATP depletion, bracketed figure in the cell, e.g. (−1.2), is not defined in the text shown, read-out: mGALK) [µM] | IC50 ([3]; recombinant human GALK1, Kinase-Glo Plus ATP depletion, bracketed figure in the cell, e.g. (−1.2), is not defined in the text shown, read-out: hGALK) [µM] | Metab. Stabil. (m) ([4]; microsomal stability half-life, minutes) | Papp ([2]; PAMPA, Perm. (1 × 10^−6 cm/sec)) [×10⁻⁶ cm/s] | mGALK (μM) ([1]; recombinant mouse GALK1, Kinase-Glo Plus ATP depletion) | hGALK (μM) ([3]; recombinant human GALK1, Kinase-Glo Plus ATP depletion)
1 | CC1=C(C(=O)Nc2cc(C(=O)O)ccn2)C(c2ccc(C(F)(F)F)cc2Cl)N=C(Nc2nc3ccc(F)cc3o2)N1 (centres unmarked) [Compound 61, 2-(4-(2-chloro-4-(trifluoromethyl)phenyl)-2-((6-fluorobenzo[d]oxazol-2-yl)amino)-6-methyl-1,4-dihydropyrimidine-5-carboxamido)isonicotinic acid] | 10.9 | 10.9 | <1 1 × 10^−6 cm/sec | 1.53 | 1.53 | >30 | 19.4 |  |  |  |  |  |  |  |  | 
2 | CC1=C(C(=O)N2CCOCC2)C(c2ccccc2Cl)N=C(Nc2nc3ccccc3o2)N1 (centres unmarked) [Compound 145, (2-(benzo[d]oxazol-2-ylamino)-4-(2-chlorophenyl)-6-methyl-1,4-dihydropyrimidin-5-yl)(morpholino)methanone] |  | 24.3 |  |  | 24.3 |  |  | 1046.7 1 × 10^−6 cm/sec | 2.1 | 15.3 |  |  |  |  |  | 
3 | CC1=C(C(=O)NCc2c(C)nn(C)c2C)C(c2ccc(C)cc2Cl)N=C(Nc2nc3cccc(N)c3o2)N1 (centres unmarked) [Compound 113, 2-((7-aminobenzo[d]oxazol-2-yl)amino)-4-(2-chloro-4-methylphenyl)-6-methyl-N-((1,3,5-trimethyl-1H-pyrazol-4-yl)methyl)-1,4-dihydropyrimidine-5-carboxamide] | 6.85 | 6.85 | 127.92 1 × 10^−6 cm/sec | 1.22 | 1.22 | 2.369 | 12.0 |  |  |  |  |  |  |  |  | 
4 | CC1=C(C(=O)NCc2cnn(Cc3ccccc3)c2)C(c2ccc(C)cc2Cl)N=C(Nc2nc3cccc(N)c3o2)N1 (centres unmarked) [Compound 114, 2-((7-aminobenzo[d]oxazol-2-yl)amino)-N-((1-benzyl-1H-pyrazol-4-yl)methyl)-4-(2-chloro-4-methylphenyl)-6-methyl-1,4-dihydropyrimidine-5-carboxamide] | 5.44 | 5.44 | 103.8 1 × 10^−6 cm/sec | 0.39 | 0.39 | 6.732 | <1 |  |  |  |  |  |  |  |  | 
5 | CC1=C(C(=O)NCc2cnn(Cc3ccccc3)c2)C(c2ccc(C)cc2Cl)N=C(Nc2nc3ccc(F)cc3o2)N1 (centres unmarked) [Compound 110, N-((1-benzyl-1H-pyrazol-4-yl)methyl)-4-(2-chloro-4-methylphenyl)-2-((6-fluorobenzo[d]oxazol-2-yl)amino)-6-methyl-1,4-dihydropyrimidine-5-carboxamide] | 5.44 | 5.44 | 159.0 1 × 10^−6 cm/sec | 1.72 | 1.72 | 2.74 | <1 |  |  |  |  |  |  |  |  | 
6 | CC1=C(C(=O)Nc2cc(C(=O)O)ccn2)C(c2ccc(C)cc2Cl)N=C(Nc2nc3cccc(N)c3o2)N1 (racemic) [Compound 79, 2-(2-((7-aminobenzo[d]oxazol-2-yl)amino)-4-(2-chloro-4-methylphenyl)-6-methyl-1,4-dihydropyrimidine-5-carboxamido)isonicotinic acid] | 1.72 | 1.72 |  | 0.12 | 0.12 | >30 | >78 |  |  |  |  |  |  | < 1 |  | 
7 | CC1=C(C(=O)Nc2cc(N(C)C)ccn2)C(c2ccc(C)cc2Cl)N=C(Nc2nc3ccc(F)cc3o2)N1 (centres unmarked) [Compound 90, 4-(2-chloro-4-methylphenyl)-N-(4-(dimethylamino)pyridin-2-yl)-2-((6-fluorobenzo[d]oxazol-2-yl)amino)-6-methyl-1,4-dihydropyrimidine-5-carboxamide] | 6.85 | 6.85 | 264.3 1 × 10^−6 cm/sec | 4.32 | 4.32 | 17.58 | 6.2 |  |  |  |  |  |  |  |  | 
8 | CC1=C(C(=O)Nc2cc(C(=O)O)ccn2)C(c2ccccc2Cl)N=C(Nc2nc3cccc([N+](=O)[O-])c3o2)N1 (centres unmarked) [Compound 23, 2-(4-(2-chlorophenyl)-6-methyl-2-((7-nitrobenzo[d]oxazol-2-yl)amino)-1,4-dihydropyrimidine-5-carboxamido)isonicotinic acid] | 38.5 | 38.5 | 31.0 1 × 10^−6 cm/sec | 19.3 | 19.3 | >30 | 7.3 |  |  |  |  |  |  |  |  | 
9 | CC1=C(C(=O)NCc2cnn(C)c2)C(c2ccc(C)cc2Cl)N=C(Nc2nc3ccc(F)c(C(=O)O)c3o2)N1 (centres unmarked) [Compound 128, 2-((4-(2-chloro-4-methylphenyl)-6-methyl-5-(((1-methyl-1H-pyrazol-4-yl)methyl)carbamoyl)-1,4-dihydropyrimidin-2-yl)amino)-6-fluorobenzo[d]oxazole-7-carboxylic acid] |  | 21.7 |  |  | 17.2 |  |  | <1 1 × 10^−6 cm/sec | >30 | 26.3 |  |  |  |  |  | 
10 | CC1=C(C(=O)N(C)c2ccccc2)C(c2ccccc2Cl)N=C(Nc2nc3ccccc3o2)N1 (centres unmarked) [Compound 151, 2-(benzo[d]oxazol-2-ylamino)-4-(2-chlorophenyl)-N,6-dimethyl-N-phenyl-1,4-dihydropyrimidine-5-carboxamide] |  |  |  |  |  |  |  | 203.1 1 × 10^−6 cm/sec | 1.176 | <1 |  |  |  |  | in- active | in- active
11 | COC(=O)Cc1ccc(NC(=O)C2=C(C)NC(Nc3nc4ccccc4o3)=NC2c2ccccc2Cl)cc1 (centres unmarked) [Compound 170, methyl 2-(4-(2-(benzo[d]oxazol-2-ylamino)-4-(2-chlorophenyl)-6-methyl-1,4-dihydropyrimidine-5-carboxamido)phenyl)acetate] | 12.2 | 12.2 |  | 5.44 | 5.44 |  |  | 195.0 1 × 10^−6 cm/sec | 7.464 | <1 |  |  |  |  |  | 

Results, then the compound that gave them:

Row | IC50 [1, 6] [µM] | IC50 [1, 7] [µM] | Perm. (1 × 10^−6 cm/sec) [2] | IC50 [3, 8] [µM] | IC50 [3, 9] [µM] | Metab. Stabil. (m) ([4]; microsomal half-life) | Sol. [5] [µg/mL] | Perm. (1 × 10^−6 cm/sec) ([2]; PAMPA) | Metab. Stabil. (m) ([4]; microsomal stability half-life) | Sol. ([5]; aqueous kinetic solubility) [µg/mL] | IC50 ([1]; recombinant mouse GALK1, Kinase-Glo Plus ATP depletion, bracketed figure in the cell, e.g. (−1.2), is not defined in the text shown, read-out: mGALK) [µM] | IC50 ([3]; recombinant human GALK1, Kinase-Glo Plus ATP depletion, bracketed figure in the cell, e.g. (−1.2), is not defined in the text shown, read-out: hGALK) [µM] | Metab. Stabil. (m) ([4]; microsomal stability half-life, minutes) | Papp ([2]; PAMPA, Perm. (1 × 10^−6 cm/sec)) [×10⁻⁶ cm/s] | mGALK (μM) ([1]; recombinant mouse GALK1, Kinase-Glo Plus ATP depletion) | hGALK (μM) ([3]; recombinant human GALK1, Kinase-Glo Plus ATP depletion) | Compound
12 | 34.3 | 34.3 |  | 19.3 | 19.3 |  |  | 5.0 1 × 10^−6 cm/sec | >30 | 47.5 |  |  |  |  |  |  | CC1=C(C(=O)Nc2cccc(-c3nnn[nH]3)c2)C(c2ccccc2Cl)N=C(Nc2nc3ccccc3o2)N1 (centres unmarked) [Compound 175, N-(3-(1H-tetrahydro-5-yl)phenyl)-2-(benzo[d]oxazol-2-ylamino)-4-(2-chlorophenyl)-6-methyl-1,4-dihydropyrimidine-5-carboxamide]
13 | 10.9 | 10.9 |  | 3.43 |  |  |  | <1 1 × 10^−6 cm/sec | >30 | 47.0 |  |  |  |  |  |  | CC1=C(C(=O)NCc2ccc(C(=O)O)cc2)C(c2ccccc2Cl)N=C(Nc2nc3ccccc3o2)N1 (centres unmarked) [Compound 225, 4-((2-(benzo[d]oxazol-2-ylamino)-4-(2-chlorophenyl)-6-methyl-1,4-dihydropyrimidine-5-carboxamido)methyl)benzoic acid]
14 | 9.68 | 9.68 |  | 3.06 | 3.06 |  |  | 109.6 1 × 10^−6 cm/sec | >30 | <1 |  |  |  |  |  |  | CC1=C(C(=O)Nc2cc(CO)ccn2)C(c2ccccc2Cl)N=C(Nc2nc3ccccc3o2)N1 (centres unmarked) [Compound 211, 2-(benzo[d]oxazol-2-ylamino)-4-(2-chlorophenyl)-N-(4-(hydroxymethyl)pyridin-2-yl)-6-methyl-1,4-dihydropyrimidine-5-carboxamide]
15 |  |  |  |  |  |  |  | 709.3 1 × 10^−6 cm/sec |  | 3.0 | 6.85 | 4.85 | >30 |  |  |  | CC1=C(C(=O)Nc2nncs2)C(c2ncccc2Br)N=C(Nc2nc3ccccc3o2)N1 (centres unmarked) [Compound 257, 2-(benzo[d]oxazol-2-ylamino)-4-(3-bromopyridin-2-yl)-6-methyl-N-(1,3,4-thiadiazol-2-yl)-1,4-dihydropyrimidine-5-carboxamide]
16 | 13.7 | 13.7 |  | 10.9 | 10.9 |  |  | <18.7 1 × 10^−6 cm/sec | 25.33 | <1 |  |  |  |  |  |  | CC1=C(C(=O)Nc2ccc(C#N)cc2)C(c2ccccc2Cl)N=C(Nc2nc3ccccc3o2)N1 (centres unmarked) [Compound 189, 2-(benzo[d]oxazol-2-ylamino)-4-(2-chlorophenyl)-N-(4-cyanophenyl)-6-methyl-1,4-dihydropyrimidine-5-carboxamide]
17 | 12.2 | 12.2 |  | 7.69 | 7.69 |  |  | 99.3 1 × 10^−6 cm/sec | 1.4 | <1 |  |  |  |  |  |  | COc1ccccc1CNC(=O)C1=C(C)NC(Nc2nc3ccccc3o2)=NC1c1ccccc1Cl (centres unmarked) [Compound 215, 2-(benzo[d]oxazol-2-ylamino)-4-(2-chlorophenyl)-N-(2-methoxybenzyl)-6-methyl-1,4-dihydropyrimidine-5-carboxamide]
